From patent US5041426A, “Immune system enhancing 3-β-d-ribofuranosylthiazolo[4,5-d]pyridimine nucleosides and nucleotides” (priority 1988, dated 1991)
Where “and” joins values, the source holds several entries; their conditions need not be identical. Identical values can stand only once.

Columns and labels:
K562 tumor cells = assay: In vitro augmentation of human natural killer cell activity (PBMNC, 51Cr release); assay type: cell-based; set-up: % Increase in Induced Natural Killer Cell Activity: concentration or dose not given beside the values
Method: The natural killer cell activity in human cells was also measured. In conducting these tests peripheral blood mononuculear cells (PBMNC) were isolated on Ficoll-Hypaque gradient, washed three times in Hanks and re-suspended in RPMI-1640 containing 10% human AB serum as described in Rosenberg, S. A.: Journal American Medical Association, 256:3117, 1986 and the above referred to reference to Djeu, et al. Peripheral blood mononuclear cells (PBMNC) from eleven different donors were treated with compound 7 as described in Djeu, et al. as well as Sharma, B., Odom, L. F.: Cancer Immunol. Immunother. 7.93, 1979, and Sharma, B., Odom, L. F.: Cancer Research 44:3258, 1984.
The PBMNC cells were incubated with compound 7 at 37° C. for 20 to 68 hours in a 5% CO2 humid atmosphere and after incubation the cytotoxicity was determined against K562 tumor cells.
^a Peripheral blood mononuclear cells were treated with 0.05 - 0.4 mM
concentration of compound 7 in RPM11640 containing 10% human AB serum for
20 to 68 hours. After the treatment, effector cells were tested against
K562 target cells in 4 hour ^51 Cr release assay as described in
Sharma et al. above. The data shown here represent the maximum response.
K562 target cells in 4 hour ^51 Cr release assay as previously
described above in Sharma et al. The data represent the maximum response.
Other Nucleosides and Nucleotides of the invention were tested for their activity in human natural killer cells […] as per example 33 above.

Banzi Virus = assay type: in vivo, mouse; details: compound 7 100 mg/kg at -24 h, saline days 0-6; of mice that died
[1] = tested on: Reticulum-cell Sarcoma M5076; assay: Reduction of reticulum-cell sarcoma metastatic foci in mice; assay type: in vivo, mouse
Method: Utilizing the protocol of Alessandri, G., Giavazzi, R., Falautano, P., Spreafico, F., Garattini, S., and Mantovani, A., European J. Cancer, 17:651-658, 1981, the antimetastatic activity of Compound 7 is seen in a sarcoma M5076 tumor system.
Fragments of reticulum-cell sarcoma M5076 were introduced into mice. The animals were treated with compound 7 for 20 days at various dosages. After treatment, the required tissues were collected, fixed in Bouin's solution and subjected to microscopic observation to enumerate metastatic foci. The results are shown in table 26 as the number of metastatic foci and table 27 as the number of mice with metastatic foci. In table 26 both the range and the median number of foci for each test group is indicated.
^a Fragments of reticulumcell sarcoma M5076 (≈14 mg) were
implanted sc in the left flank of BDF1 female mice and ip bolus
injections of drug were initiated 24 hrs later. The drug was delivered on
the basis of 0.01 ml/g mouse weight. Control mice received a 0.09%
solution of NaCl delivered on the same basis. Seven mice were used per
treatment group. Treatment give qd for days 1- 20.

[2] = tested on: Herpes Simplex Virus Type 1; assay: Antiviral activity against Herpes simplex virus type 1 infection in mice; assay type: in vivo, mouse; details: at -48, -24, and -2 h
YAC-1 tumor target cells = assay: In vivo potentiation of natural killer cell activity in CBA/CaJ mice (spleen cells); details: for % Natural Killer Cytotoxicity: 1.68 mg/mouse i.p.
Method: After 1, 2, 3 and 4 days of treatment the spleens of the mice were harvested and the cytotoxic activity of the spleen cells was determined against YAC-1 tumor target cells in the above referred to ^51 Cr release assay as identified in EXAMPLE 32.
(1.68 mg/mouse) by intraperitoneal route.
Each value represents mean ±SD cytotoxic activity of three mice

[3] = 62 mg/kg ip qd days 1-20, p < 0.005

## Nc1nc2c(sc(=O)n2[C@@H]2O[C@H](CO)[C@@H](O)[C@H]2O)c(=O)[nH]1 [Compound 7, 5-Amino-3-β-D-ribofuranosylthiazolo[4,5-d]pyrimidine-2,7(6H)-dione]
K562 tumor cells; 0.05 - 0.4 mM, 20 to 68 h, maximum response, donors 1 to 11, one line per donor in order
  % Natural Killer Cell Cytotoxicity, + Compound 7: 91% and 29% and 54% and 47% and 16% and 18% and 10% and 22% and 15% and 20% and 32%
K562 tumor cells; Donor 1, Table 2b
  tests with an increase in the mediated potentiation: eight of the eight tests
K562 tumor cells; Donor 2, Table 2b
  tests with an increase in the mediated potentiation: six of six tests
K562 tumor cells; PBMNC from eleven donors pretreated with compound 7 (untreated mean 11.7%)
  mean natural killer cell cytotoxicity: 32.2%
K562 tumor cells; Table 22, 0.2 mM
  % Natural Killer Cell Cytotoxicity: 10%
K562 tumor cells; donors 1 to 11, one line per donor in order
  % Increase in Induced Natural Killer Cell Activity: 1031% and 548% and 220% and 88% and 123% and 141% and 167% and 150% and 0% and 63% and 8%
K562 tumor cells; eight of eleven donors
  potentiation in natural killer cell cytotoxicity: over 100%
Banzi Virus
  Mean Survival Time: 9.3 ± 1.0 days
[1]; 37 mg/kg ip qd days 1-20
  Mice With Metastatic Foci in Lung (+/7): 7/7
  Number of Metastatic Foci in Liver, Range: 0-17
  Number of Metastatic Foci in Lung, Range: 1-11
[1]; 37 mg/kg ip qd days 1-20, p < 0.005
  Number of Metastatic Foci in Liver, Medium: 1
[1]; 37 mg/kg ip qd days 1-20, p < 0.01
  Number of Metastatic Foci in Lung, Median: 6
[1]; 37 mg/kg ip qd days 1-20, p < 0.05
  Mice With Metastatic Foci in Liver (+/7): 4/7
[1]; 62 mg/kg ip qd days 1-20
  Mice With Metastatic Foci in Lung (+/7): 6/7
  Number of Metastatic Foci in Liver, Range: 0-1
  Number of Metastatic Foci in Lung, Range: 0-29
[1]; [3]
  Mice With Metastatic Foci in Liver (+/7): 1/7
  Number of Metastatic Foci in Liver, Medium: 0
[1]; 62 mg/kg ip qd days 1-20, p < 0.09
  Number of Metastatic Foci in Lung, Median: 2
[1]; 104 mg/kg ip qd days 1-20
  Number of Metastatic Foci in Liver, Range: 0-0
  Number of Metastatic Foci in Lung, Range: 0-4
[1]; 104 mg/kg ip qd days 1-20, p < 0.0005
  Mice With Metastatic Foci in Liver (+/7): 0/7
[1]; 104 mg/kg ip qd days 1-20, p < 0.0009
  Number of Metastatic Foci in Liver, Medium: 0
[1]; 104 mg/kg ip qd days 1-20, p < 0.003
  Number of Metastatic Foci in Lung, Median: 0
[1]; 104 mg/kg ip qd days 1-20, p < 0.025
  Mice With Metastatic Foci in Lung (+/7): 3/7
[2]; 50 mg/kg/day
  Mean Survival Time: 14.8 ± 5.0 days
[2]; 100 mg/kg/day
  Mean Survival Time: 11.4 ± 1.8 days
[2]; 200 mg/kg/day
  Mean Survival Time: 11.0 ± 1.7 days
YAC-1 tumor target cells; 0.84 mg i.p., E:T 50:1
  % Natural Killer Cytoxicity: 38 ± 7%
YAC-1 tumor target cells; 0.84 mg i.p., E:T 100:1
  % Natural Killer Cytoxicity: 48 ± 9%
YAC-1 tumor target cells; 0.84 mg i.p., E:T 150:1
  % Natural Killer Cytoxicity: 56 ± 8.5%
YAC-1 tumor target cells; 0.84 mg to 3.36 mg per mouse
  increase in natural killer cell activity: all doses of compound 7 induced a marked increase in natural killer cell activity
YAC-1 tumor target cells; 1.68 mg i.p., E:T 50:1 (Table 4)
  % Natural Killer Cytoxicity: 44 ± 8%
YAC-1 tumor target cells; 1.68 mg i.p., E:T 100:1 (Table 4)
  % Natural Killer Cytoxicity: 56 ± 12%
YAC-1 tumor target cells; 1.68 mg i.p., E:T 150:1 (Table 4)
  % Natural Killer Cytoxicity: 61 ± 14%
YAC-1 tumor target cells; 1 day after treatment, E:T 50:1
  % Natural Killer Cytotoxicity: 53 ± 5%
YAC-1 tumor target cells; 1 day after treatment, E:T 100:1
  % Natural Killer Cytotoxicity: 64 ± 5%
YAC-1 tumor target cells; 1 day after treatment, E:T 150:1
  % Natural Killer Cytotoxicity: 71 ± 9%
YAC-1 tumor target cells; 2 days after treatment, E:T 50:1
  % Natural Killer Cytotoxicity: 46 ± 9%
YAC-1 tumor target cells; 2 days after treatment, E:T 100:1
  % Natural Killer Cytotoxicity: 64 ± 5%
YAC-1 tumor target cells; 2 days after treatment, E:T 150:1
  % Natural Killer Cytotoxicity: 65 ± 7%
YAC-1 tumor target cells; 3 days after treatment, E:T 50:1
  % Natural Killer Cytotoxicity: 38 ± 6.6%
YAC-1 tumor target cells; 3 days after treatment, E:T 100:1
  % Natural Killer Cytotoxicity: 50 ± 7%
YAC-1 tumor target cells; 3 days after treatment, E:T 150:1
  % Natural Killer Cytotoxicity: 63 ± 6%
YAC-1 tumor target cells; 4 days after treatment, E:T 50:1
  % Natural Killer Cytotoxicity: 30 ± 0.1%
YAC-1 tumor target cells; 4 days after treatment, E:T 100:1
  % Natural Killer Cytotoxicity: 37 ± 1.5%
YAC-1 tumor target cells; 4 days after treatment, E:T 150:1
  % Natural Killer Cytotoxicity: 48 ± 3%
YAC-1 tumor target cells; 2.52 mg i.p., E:T 50:1
  % Natural Killer Cytoxicity: 48 ± 6.6%
YAC-1 tumor target cells; 2.52 mg i.p., E:T 100:1
  % Natural Killer Cytoxicity: 62 ± 7%
YAC-1 tumor target cells; 2.52 mg i.p., E:T 150:1
  % Natural Killer Cytoxicity: 70 ± 5%
YAC-1 tumor target cells; 3.36 mg i.p., E:T 50:1
  % Natural Killer Cytoxicity: 48 ± 4.6%
YAC-1 tumor target cells; 3.36 mg i.p., E:T 100:1
  % Natural Killer Cytoxicity: 67 ± 10%
YAC-1 tumor target cells; 3.36 mg i.p., E:T 150:1
  % Natural Killer Cytoxicity: 74 ± 6.4%
YAC-1 tumor target cells; Mus musculus, YAC-1, 24 h, read-out: maximum response, increase in natural killer cell activity
  Emax: 382%
YAC-1 tumor target cells; single injection 1.68 mg per mouse, after 4 days
  increase in natural killer cell activity: More than a two fold increase
